A short description of assay [1]: Inhibition of recombinant wildtype N-terminus SYYHHHHHH-tagged human fructose 1,6-bisphosphatase extracted from Escherichia coli BL21 (DE3) cells using fructose1,6-bisphosphate as substrate assessed as NADP+ reduction to NADPH in presence of NADP+, PGI and G6PDH by spectrophotometric analysis.
The target of assay [2] is Fructose-1,6-bisphosphatase 1 (Homo sapiens, UniProt P09467, C129S). Kind of assay: Inhibition of N-terminus SYYHHHHHH-tagged human fructose 1,6-bisphosphatase C128S mutant extracted from Escherichia coli BL21 (DE3) cells using fructose1,6-bisphosphate as substrate assessed as NADP+ reduction to NADPH in presence of NADP+, PGI and G6PDH by spectrophotometric analysis.
Assay [3] addresses Fructose-1,6-bisphosphatase 1 (Homo sapiens, UniProt P09467, C180S). In words: Inhibition of N-terminus SYYHHHHHH-tagged human fructose 1,6-bisphosphatase C179S mutant extracted from Escherichia coli BL21 (DE3) cells using fructose1,6-bisphosphate as substrate assessed as NADP+ reduction to NADPH in presence of NADP+, PGI and G6PDH by spectrophotometric analysis.
Assay [4] is filed under the species Homo sapiens. Kind of assay: Selectivity ratio of IC50 for inhibition of N-terminus SYYHHHHHH-tagged human fructose 1,6-bisphosphatase C128S mutant extracted from Escherichia coli BL21 (DE3) cells to IC50 for inhibition of wildtype N-terminus SYYHHHHHH-tagged human fructose 1,6-bisphosphatase extracted from Escherichia coli BL21 (DE3) cells.
The species entered for assay [5] is Homo sapiens. Kind of assay: Selectivity ratio of IC50 for inhibition of N-terminus SYYHHHHHH-tagged human fructose 1,6-bisphosphatase C179S mutant extracted from Escherichia coli BL21 (DE3) cells to IC50 for inhibition of wildtype N-terminus SYYHHHHHH-tagged human fructose 1,6-bisphosphatase extracted from Escherichia coli BL21 (DE3) cells.
A further assay concerns Mus musculus. In words: Antidiabetic activity in db/db mouse model assessed as reduction in blood glucose level at 250 mg/kg, ip preadministered with compound for 8 hrs followed by free feeding and measured after 16 hrs by glucometer. The format is functional, organism-based. The note with it: time 24.0 hrs.
Assay [6] in a line: Inhibition of recombinant N-terminus SYYHHHHHH-tagged human fructose 1,6-bisphosphatase extracted from Escherichia coli BL21 (DE3) cells using fructose1,6-bisphosphate as substrate assessed as inhibition constant incubated for 12 to 40 mins in presence of NADP+, PGI and G6PDH by spectrophotometric analysis.
Assay [7] is filed under the species Homo sapiens. Kind of assay: Inhibition of recombinant N-terminus SYYHHHHHH-tagged human fructose 1,6-bisphosphatase extracted from Escherichia coli BL21 (DE3) cells using fructose1,6-bisphosphate as substrate assessed as inactivation rate constant incubated for 12 to 40 mins in presence of NADP+, PGI and G6PDH by spectrophotometric analysis. The settings on record: time 12-40 min.

The species named for assay [8] is Homo sapiens. In words: Inhibition of recombinant N-terminus SYYHHHHHH-tagged human fructose 1,6-bisphosphatase extracted from Escherichia coli BL21 (DE3) cells using fructose1,6-bisphosphate as substrate assessed as Kinact to Ki ratio incubated for 12 to 40 mins in presence of NADP+, PGI and G6PDH by spectrophotometric analysis. The note with it: time 12-40 min.

Each structure is given as a SMILES string. Active and inactive are the calls of the source. The rule behind the calls is not given here. Where only a bound is given, the exact number is not on record here.

Sequence of Fructose-1,6-bisphosphatase 1 (Homo sapiens, UniProt P09467, C129S) (P09467 2-338 C129S limits assumed): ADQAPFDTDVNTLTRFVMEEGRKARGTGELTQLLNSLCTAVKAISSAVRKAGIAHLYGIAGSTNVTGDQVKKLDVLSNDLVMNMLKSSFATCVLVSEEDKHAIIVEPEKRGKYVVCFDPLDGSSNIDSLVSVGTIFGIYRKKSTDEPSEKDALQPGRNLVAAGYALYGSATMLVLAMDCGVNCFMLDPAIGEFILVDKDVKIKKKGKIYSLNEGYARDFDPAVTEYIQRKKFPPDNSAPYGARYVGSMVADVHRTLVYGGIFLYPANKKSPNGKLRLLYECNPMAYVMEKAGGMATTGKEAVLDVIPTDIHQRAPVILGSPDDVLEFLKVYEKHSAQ
Sequence of Fructose-1,6-bisphosphatase 1 (Homo sapiens, UniProt P09467, C180S) (P09467 2-338 C180S limits assumed): as the sequence (P09467 2-338 C129S limits assumed) above, with S128C, C179S counted along it

Take `Cc1ccc(NC(=O)NS(=O)(=O)c2ccc(CCNC(=O)CBr)cc2)cc1`: the concentration for half-maximal inhibition (IC50) in assay [1] amounted to 7.48 µM.

Consider `O=C(Nc1cccc(Br)c1)NS(=O)(=O)c1ccc(NC(=O)c2ccc(Cl)nc2)cc1`, for which the IC50 in [1] was 3.55 µM; in [2], 71.8 µM; in assay [3], 7.83 µM. For the same compound, the Ratio IC50 turned out to be 20 in the assay listed under Homo sapiens [4] and 2.2 in the assay listed under Homo sapiens [5].

As for `C#CCNC(=O)c1ccc(S(=O)(=O)NC(=O)Nc2cccc(Br)c2)cc1`, the IC50 in assay [1] was determined as 39.8 µM.

Regarding `C/C=C/C(=O)NCCc1ccc(S(=O)(=O)NC(=O)Nc2cccc(Br)c2)cc1`, in assay [1], the concentration for half-maximal inhibition (IC50) was > 500 µM.

As to `O=C(CBr)NCCc1ccc(S(=O)(=O)NC(=O)Nc2ccc([N+](=O)[O-])cc2)cc1`, in assay [1], the IC50 worked out at 19.3 µM.

In the case of `CN(C)C(=N)NC(=N)N`, the outcome with Mus musculus was inactive.

With `C#Cc1cccc(NC(=O)NS(=O)(=O)c2ccc(CCNC(=O)CBr)cc2)c1`, the IC50 in [1] came out at 2.93 µM.

`O=C(CBr)NCCc1ccc(S(=O)(=O)NC(=O)Nc2ccc(F)cc2)cc1`: the half-maximal inhibitory concentration (IC50) in [1] was determined as 3.94 µM.

Turning to `O=C(CBr)NCCc1ccc(S(=O)(=O)NC(=O)Nc2cccc(Br)c2)cc1`, the IC50 came to 2.06 µM in [1], 4.7 µM in assay [2] and 122 µM in [3]. In addition, the Ratio IC50 is 2.3 in the assay filed under Homo sapiens [4] and 59 in the assay listed under Homo sapiens [5]. For the same compound, the inhibitory constant (Ki) in assay [6] came out at 7.13 µM. For the same compound, the Kinact in the assay listed under Homo sapiens [7] is 0.002 s⁻¹. Moreover, the Ratio in the assay filed under Homo sapiens [8] was 240 M⁻¹ s⁻¹.

Regarding `O=C(CBr)NCCc1ccc(S(=O)(=O)NC(=O)Nc2ccc3c(c2)OCCO3)cc1`, the IC50 in [1] worked out at 5.38 µM.

`O=C(Nc1cccc(Br)c1)NS(=O)(=O)c1ccccc1`: the half-maximal inhibitory concentration (IC50) in assay [1] stood at 13.6 µM.

As to `Cc1cc(NC(=O)NS(=O)(=O)c2ccc(CCNC(=O)CBr)cc2)no1`, the IC50 in assay [1] was found to be 13.3 µM.

Consider `O=C(CCl)NCCc1ccc(S(=O)(=O)NC(=O)Nc2cccc(Br)c2)cc1`, for which the IC50 in assay [1] is 36.2 µM.

`C=CC(=O)NCCc1ccc(S(=O)(=O)NC(=O)Nc2cccc(Br)c2)cc1`: the IC50 in [1] was > 500 µM.

`N#Cc1ccc(NC(=O)NS(=O)(=O)c2ccc(CCNC(=O)CBr)cc2)cc1`: the half-maximal inhibitory concentration (IC50) in assay [1] stood at 3.42 µM.

In the case of `O=C(CBr)NCCc1ccc(S(=O)(=O)NC(=O)Nc2ccc(-c3ccccc3)cc2)cc1`, the IC50 in assay [1] worked out at 1.81 µM.

For the compound `O=C(CBr)NCCc1ccc(S(=O)(=O)NC(=O)Nc2ccc3c(c2)OCO3)cc1`, the concentration for half-maximal inhibition (IC50) in assay [1] was 2.7 µM.

What is called IC50 is the concentration needed to halve the response being measured. The Ki is a measure of affinity in units of concentration, obtained from inhibition or displacement.

The values are drawn from ChEMBL document CHEMBL6127127, “Structure-Guided Design of Affinity/Covalent-Bond Dual-Driven Inhibitors Targeting the AMP Site of FBPase” (J Med Chem, 2024).
